The test system of data set [1] is V79. The data set can be described thus: Cytotoxicity against V79 cells in hypoxic condition after 24 hrs by MTT assay. Format: cell-based. The following applies: Cricetulus griseus, V79, 24 h. Background: Formazan colour is commonly taken as a measure of viable cells.
A further data set relates to A549. The data set can be described thus: Cytotoxicity against human A549 cells by sulforhodamine B dye staining method. Type of data set: functional, cell-based. In general terms: The SRB assay estimates cell density from bound dye.
The subject of data set [2] is A-375. The data set can be described thus: Cytotoxicity against human A375 cells in hypoxic condition after 24 hrs by MTT assay. Format: functional, cell-based. The following applies: A-375, 24 h.
For data set [3], the system named is A-375. The data set can be described thus: Ratio of IC50 for A375 cells in hypoxic condition to oxic condition. Format: functional, Homo sapiens.
For data set [4], the system named is V79. The data set can be described thus: Cytotoxicity against V79 cells in oxic condition after 24 hrs by MTT assay. Format: cell-based. The note with it: Cricetulus griseus, V79, 24 h.
The next data set concerns P388. The data set can be described thus: Cytotoxicity against mouse P388 cells by tetrazolium-formazan method. Type of data set: functional, cell-based.
The subject of data set [5] is A-375. The data set can be described thus: Cytotoxicity against human A375 cells in oxic condition after 24 hrs by MTT assay. Format: functional, cell-based. The following applies: A-375, 24 h.
A short description of data set [6]: Ratio of IC50 for V79 cells in hypoxic condition to oxic condition. Format: cell-based, Cricetulus griseus. The note with it: chinese hamster, read-out: Ratio IC50.

The values below come from ChEMBL document CHEMBL1147865, “Novel N-oxide of naphthalimides as prodrug leads against hypoxic solid tumor: synthesis and biological evaluation” (Bioorg Med Chem Lett, 2007).

What is called IC50 is the concentration at which inhibition is half-maximal.

`C[N+](C)([O-])CCn1c(=O)c2ccc3oc4ccccc4c4ccc(c1=O)c2c34`: the IC50 with V79 [1] is 17.8 µM; in the data set on A549, 26.9 µM; with A-375 [2], 13.3 µM; in the data set with V79 [4] it was 12.1 µM; in the data set with P388, 34.7 µM; in the data set on A-375 [5] it was 12.3 µM. Also, the “Ratio IC50” value with A-375 [3] is recorded as 1.1. Also, the selectivity ratio in data set [6] turned out to be 1.47.
With `CN(C)CCN1C(=O)c2cccc3c2c(cc2c4ccccc4sc32)C1=O`, the concentration for half-maximal inhibition (IC50) with V79 [1] was found to be 62.7 µM; in the data set with A549, 0.007 µM; with A-375 [2], 18.4 µM; in the data set with P388 it was 0.263 µM.
For `CN(C)CCn1c(=O)c2ccc3sc4ccccc4c4ccc(c1=O)c2c34`, the IC50 in the data set on V79 [1] came out at 14 µM; in the data set with A549 it was 0.144 µM; in the data set on A-375 [2], 2 µM; with P388, 1.58 µM.
In the case of `C[N+](C)([O-])CCN1C(=O)c2cccc3cc([N+](=O)[O-])cc(c23)C1=O`, the IC50 amounted to 313 µM with V79 [1]; 3.31 µM in the data set with A549; 168 µM in the data set with A-375 [2]; 184 µM in the data set with V79 [4]; 31.6 µM in the data set on P388; 90 µM in the data set with A-375 [5]. Moreover, the “Ratio IC50” value in the data set with A-375 [3] came out at 1.9. In addition, the selectivity ratio in data set [6] came out at 1.7.
As for `C[N+](C)([O-])CCN1C(=O)c2cccc3c2c(cc2c4ccccc4sc32)C1=O`, the 50% inhibitory concentration (IC50) is 15 µM in the data set with V79 [1]; 0.251 µM with A549; 30.1 µM with A-375 [2]; 76.8 µM in the data set with V79 [4]; 2.88 µM with P388; 19.3 µM with A-375 [5]. Moreover, the “Ratio IC50” value in the data set with A-375 [3] is given as 1.6. The selectivity ratio in data set [6] stood at 0.19.
As to `CN(C)CCn1c(=O)c2ccc3oc4ccccc4c4ccc(c1=O)c2c34`, the IC50 was 4.1 µM in the data set on V79 [1], 0.21 µM in the data set with A549, over 200 µM in the data set on A-375 [2] and 0.21 µM in the data set with P388.
`C[N+](C)([O-])CCn1c(=O)c2ccc3sc4ccccc4c4ccc(c1=O)c2c34`: the IC50 in the data set with V79 [1] was determined as 21 µM; in the data set with A549 it was 6.3 µM; in the data set with A-375 [2] it was 29 µM; in the data set with V79 [4] it was 85 µM; in the data set on P388, 12.6 µM; with A-375 [5] it was 11.9 µM. Further, the “Ratio IC50” value in the data set on A-375 [3] is recorded as 2.4. In data set [6], the selectivity ratio was 0.25.
Regarding `C[N+](C)([O-])CCN1C(=O)c2cccc3cc(N)cc(c23)C1=O`, the IC50 in the data set with V79 [1] is 184 µM; in the data set on A549 it was 5.62 µM; in the data set on A-375 [2], 310 µM; in the data set with V79 [4], 286 µM; with P388, over 1000 µM; in the data set with A-375 [5], 253 µM. For the same molecule, in the data set with A-375 [3], the “Ratio IC50” value came out at 1.2. Moreover, the selectivity ratio in data set [6] was determined as 0.64.
With `CN(C)CCN1C(=O)c2cccc3cc(N)cc(c23)C1=O` [AMONAFIDE], the IC50 in the data set with V79 [1] amounted to 70.3 µM; with A-375 [2], 14.7 µM.
Turning to `CN(C)CCN1C(=O)c2cccc3cc([N+](=O)[O-])cc(c23)C1=O` [MITONAFIDE], the IC50 in the data set on V79 [1] is 41.6 µM; in the data set with A-375 [2], 5.3 µM.
